Data set [1] deals with MV4-11 cells. In words: MV4-11 Cell Cytotoxicity Assay (CellTiter-Blue, 72 h). The data set is classed as cell-based, human. As to conditions: Homo sapiens, MV4-11; MV-4-11 cells. A digest of the protocol: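 Viability read-out: CellTiter-Blue, 1 h, fluorescence 560/590 nm. Preceded by 72 h exposure (37° C, 5% CO2) to twofold dilution series from 50 μM, triplicate, 0.5% DMSO vehicle, applied 24 h after plating.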

Data set [2] relates to glutathione (GSH). In words: Reactivity Profiling with Glutathione (GSH), half-life by HPLC. As to conditions: 5 mM glutathione (GSH) in IMDM with 10% FBS.
Data set [3] has as its system normal human fibroblast (NHF) cells. In words: NHF Cell Cytotoxicity Assay (CellTiter-Blue, 72 h), off-target effects. It is filed as cell-based. The following applies: Homo sapiens, Fibroblast; pooled NHF cells. As to the method:
In some embodiments, the off-target effects of the compounds are evaluated in healthy human cells, such as in a normal human fibroblast (NHF) cell cytotoxicity assay.
Cell viability was examined following treatment at various concentrations of inhibitor (0.097656-50 μM) using a cell Titer-Blue cell viability assay. 1×10^4 normal human fibroblast cells per well were plated in 96-well assay plates in culture medium. All cells are grown in DMEM, IMDM and RPMI-1640 were supplemented with 10% FBS. After 24 hours, test compounds and vehicle controls are added to appropriate wells so the final volume was 100 μl in each well. The cells are cultured for the desired test exposure period (72 hours) at 37° C. and 5% CO2. The assay plates are removed from 37° C. incubator and 20 μL/well of CellTiter-Blue® Reagent is added. The plates are incubated using standard cell culture conditions for 1-4 hours and the plates are shaken for 10 seconds and record fluorescence at 560/590nm. For each sample well, value is normalized between the DMSO control and the highest concentration in case of plateau, and converted into a percentage. In the absence of plateau, minimum lecture is obtained from a different sample within the same experiment. For each concentration, the four replicates are averaged and standard deviation calculated. Data is fitted to a log(inhibitor) vs response curve with variable slope model using Microsoft Excel, obtaining IC50 and Hill slope variables.
A person skilled in the art would appreciate that a higher IC50 value in this NHF assay can indicate lower off-target effects.
(Alamar Blue is a resazurin reagent that responds to reducing activity.)

A word on the IC50: it is the point on the concentration scale where inhibition reaches its midpoint. The low end stands for greater potency in that assay, the high end for weaker potency in that assay. As usually defined, the half-life is the time needed for the level to fall by half in the phase considered. A higher half-life goes with slow decline.

With `COc1cc(C(=O)O)ccc1N(Cc1cc(C2CC2)cc(C(C)(C)C)c1)C(=O)CN(Cc1ccc(Cl)cc1)S(=O)(=O)c1c(F)c(F)c(F)c(F)c1F` [Compound 1016, 4-(N-(3-(tert-butyl)-5-cyclopropylbenzyl)-2-(N-(4-chlorobenzyl)-(2,3,4,5,6-pentafluorophenyl)sulfon-amido)acetamido)-3-methoxybenzoic acid], the IC50 in data set [1] was in the range of 316 to 1000 nM; in data set [3] it was 20 to 30 µM. In data set [2], this compound showed a half-life at 25 μM of 4.12 to 9.23 h.

As for `CN(C)c1cc(C(=O)O)ccc1N(Cc1cc(C2CC2)cc(C(C)(C)C)c1)C(=O)CN(Cc1ccc(Cl)cc1)S(=O)(=O)c1c(F)c(F)c(F)c(F)c1F` [Compound 1041, 4-(N-(3-(tert-butyl)-5-cyclopropylbenzyl)-2-(N-(4-chlorobenzyl)-(2,3,4,5,6-pentafluorophenyl)sulfon-amido)acetamido)-3-(dimethylamino)benzoic acid], the results for the IC50 in data set [1] and in data set [3] were 316 to 1000 nM and 20 to 30 µM, respectively. The compound also returned a half-life at 25 μM in data set [2] of 9.23 to 1670 h.

As to `COc1cc(C(=O)O)ccc1N(Cc1cc(C2CC2)cc(C(C)(C)C)c1)C(=O)CN(Cc1ccccc1F)S(=O)(=O)c1c(F)c(F)c(F)c(F)c1F` [Compound 1061, 4-(N-(3-(tert-butyl)-5-cyclopropylbenzyl)-2-(N-(2-fluorobenzyl)-(2,3,4,5,6-pentafluoro-phenyl)sulfonamido)acetamido)-3-methoxybenzoic acid], the IC50 in data set [1] was 0.01 to 316 nM; in data set [3] it was 10 to 20 µM. The compound also returned a half-life at 25 μM in data set [2] of 2.37 to 4.12 h.

Regarding `COc1cc(C(=O)O)ccc1N(Cc1cc(C2CC2)cc(C2CC2)c1)C(=O)CN(Cc1ncccc1C(F)(F)F)S(=O)(=O)c1c(F)c(F)c(F)c(F)c1F` [Compound 1162, 4-(N-(3,5-dicyclopropylbenzyl)-2-(N-((3-(trifluoromethyl)pyridin-2-yl)methyl)-(2,3,4,5,6-pentafluoro-phenyl)sulfonamido)acetamido)-3-methoxybenzoic acid], the half-life at 25 μM in data set [2] lay within 2.37 to 4.12 h. The IC50 in data set [3] was in the range of 10 to 20 µM.

`O=C(O)c1ccc(N(Cc2cc(C3CC3)cc(N3CCCC3)c2)C(=O)CN(Cc2cnccc2C(F)(F)F)S(=O)(=O)c2c(F)c(F)c(F)c(F)c2F)c(OC2CC2)c1` [Compound 1190, 3-cyclopropoxy-4-(N-(3-cyclopropyl-5-(pyrrolidin-1-yl)benzyl)-2-(N-((4-(trifluoromethyl)pyridin-3-yl)methyl)-(2,3,4,5,6-pentafluoro-phenyl)sulfonamido)acetamido)benzoic acid]: the half-life at 25 μM in data set [2] lay in the range of 2.37 to 4.12 h. The IC50 in data set [3] fell in the range of 0.001 to 10 µM.

`O=C(O)c1ccc(N(Cc2cc(C3CC3)cc(C3CC3)c2)C(=O)CN(Cc2ccc(F)cc2C(F)(F)F)S(=O)(=O)c2c(F)c(F)c(F)c(F)c2F)c(OC2CC2)c1` [Compound 1223, 3-cyclopropoxy-4-(N-(3,5-dicyclopropylbenzyl)-2-(N-(4-fluoro-2-(trifluoromethyl)benzyl)-(2,3,4,5,6-pentafluoro-phenyl)sulfonamido)acetamido)benzoic acid]: the half-life at 25 μM in data set [2] lay within 4.12 to 9.23 h. In data set [3], this compound had an IC50 of 20 to 30 µM.

The compound `O=C(O)c1ccc(N(Cc2cc(C3CC3)cc(C3CC3)c2)C(=O)CN(Cc2ccc(F)cc2Cl)S(=O)(=O)c2c(F)c(F)c(F)c(F)c2F)c(OC2CCOCC2)c1` [Compound 1230, 4-(2-(N-(2-chloro-4-fluorobenzyl)-(2,3,4,5,6-pentafluorophenyl)sulfon-amido)-N-(3,5-dicyclopropylbenzyl)acetamido)-3-((tetrahydro-2H-pyran-4-yl)oxy)benzoic acid] registered a half-life at 25 μM in data set [2] of 2.37 to 4.12 h. In data set [3], this compound displayed an IC50 of 0.001 to 10 µM.

As to `O=C(O)c1ccc(N(Cc2cc(C3CC3)cc(N3CCCC3)c2)C(=O)CN(Cc2ccc(F)cc2Cl)S(=O)(=O)c2c(F)c(F)c(F)c(F)c2F)c(OC2CCCC2)c1` [Compound 1239, 4-(2-(N-(2-chloro-4-fluorobenzyl)-(2,3,4,5,6-pentafluorophenyl)sulfon-amido)-N-(3-cyclopropyl-5-(pyrrolidin-1-yl)benzyl)acetamido)-3-(cyclopentyloxy)benzoic acid], the concentration for half-maximal inhibition (IC50) in data set [1] was in the range of 0.01 to 316 nM; in data set [3] it was 20 to 30 µM.

`O=C(O)c1ccc(N(Cc2cc(C3CC3)cc(C3CC3)c2)C(=O)CN(Cc2ccc(F)cc2Cl)S(=O)(=O)c2c(F)c(F)c(F)c(F)c2F)c(N2CCCC2)c1` [Compound 1240, 4-(2-(N-(2-chloro-4-fluorobenzyl)-(2,3,4,5,6-pentafluorophenyl)sulfon-amido)-N-(3,5-dicyclopropylbenzyl)acetamido)-3-(pyrrolidin-1-yl)benzoic acid]: the figures for the IC50 in data set [1] and in data set [3] were 0.01 to 316 nM and 10 to 20 µM, respectively.

In the case of `COCCOc1cc(C(=O)O)ccc1N(Cc1cc(C2CC2)cc(C2CC2)c1)C(=O)CN(Cc1ccc(F)cc1Cl)S(=O)(=O)c1c(F)c(F)c(F)c(F)c1F` [Compound 1245, 4-(2-(N-(2-chloro-4-fluorobenzyl)-(2,3,4,5,6-pentafluorophenyl)sulfon-amido)-N-(3,5-dicyclopropylbenzyl)acetamido)-3-(2-methoxyethoxy)benzoic acid], the half-life at 25 μM in data set [2] was 2.37 to 4.12 h. This compound had an IC50 in data set [3] of 0.001 to 10 µM.

`O=C(O)c1ccc(N(Cc2nc(C3CC3)cc(C3CC3)n2)C(=O)CN(Cc2ccc(F)cc2Cl)S(=O)(=O)c2c(F)c(F)c(F)c(F)c2F)c(OC2CC2)c1` [Compound 1247, 4-(2-(N-(2-chloro-4-fluorobenzyl)-(2,3,4,5,6-pentafluorophenyl)sulfon-amido)-N-((4,6-dicyclopropylpyrimidin-2-yl)methyl)acetamido)-3-cyclopropoxybenzoic acid] had a half-life at 25 μM in data set [2] of 2.37 to 4.12 h. The IC50 in data set [3] was 10 to 20 µM.

`CC(C)(C)c1cc(CN(C(=O)CN(Cc2ccc(F)cc2Cl)S(=O)(=O)c2c(F)c(F)c(F)c(F)c2F)c2ccc(C(=O)O)cc2O[C@H]2CCOC2)cc(C2CC2)c1` [Compound 1248, (S)-4-(N-(3-(tert-butyl)-5-cyclopropylbenzyl)-2-(N-(2-chloro-4-fluorobenzyl)-(2,3,4,5,6-pentafluorophenyl)sulfon-amido)acetamido)-3-((tetrahydrofuran-3-yl)oxy)benzoic acid] came in with a half-life at 25 μM in data set [2] of 2.37 to 4.12 h. Moreover, the IC50 in data set [3] is 0.001 to 10 µM.

In data set [2], `CC(C)(C)c1cc(CN(C(=O)CN(Cc2ccc(F)cc2Cl)S(=O)(=O)c2c(F)c(F)c(F)c(F)c2F)c2ccc(C(=O)O)cc2O[C@@H]2CCOC2)cc(C2CC2)c1` [Compound 1249, (R)-4-(N-(3-(tert-butyl)-5-cyclopropylbenzyl)-2-(N-(2-chloro-4-fluorobenzyl)-(2,3,4,5,6-pentafluorophenyl)sulfon-amido)acetamido)-3-((tetrahydrofuran-3-yl)oxy)benzoic acid] gave a half-life at 25 μM of 2.37 to 4.12 h. In data set [3], this compound returned an IC50 of 10 to 20 µM.

With `Cc1cc(C(=O)O)ccc1N(Cc1cc(C2CC2)cc(C(C)(C)C)c1)C(=O)CN(Cc1ccc(F)cc1Cl)S(=O)(=O)c1c(F)c(F)c(F)c(F)c1F` [Compound 1250, 4-(N-(3-(tert-butyl)-5-cyclopropylbenzyl)-2-(N-(2-chloro-4-fluorobenzyl)-(2,3,4,5,6-pentafluorophenyl)sulfon-amido)acetamido)-3-methylbenzoic acid], the half-inhibitory concentration (IC50) in data set [1] fell in the range of 0.01 to 316 nM; in data set [3] it was 0.001 to 10 µM.

The compound `CC(C)COc1cc(C(=O)O)ccc1N(Cc1cc(C2CC2)cc(C2CC2)c1)C(=O)CN(Cc1ccc(F)cc1Cl)S(=O)(=O)c1c(F)c(F)c(F)c(F)c1F` [Compound 1255, 4-(2-(N-(2-chloro-4-fluorobenzyl)-(2,3,4,5,6-pentafluorophenyl)sulfon-amido)-N-(3,5-dicyclopropylbenzyl)acetamido)-3-isobutoxybenzoic acid] registered a half-life at 25 μM in data set [2] of 9.23 to 1670 h. In data set [3], this compound displayed an IC50 of 10 to 20 µM.

In data set [2], `O=C(O)c1ccc(N(Cc2cc(C3CC3)cc(C3CC3)c2)C(=O)CN(Cc2ccc(F)cc2Cl)S(=O)(=O)c2c(F)c(F)c(F)c(F)c2F)c(OCC2COC2)c1` [Compound 1257, 4-(2-(N-(2-chloro-4-fluorobenzyl)-(2,3,4,5,6-pentafluorophenyl)sulfon-amido)-N-(3,5-dicyclopropylbenzyl)acetamido)-3-(oxetan-3-ylmethoxy)benzoic acid] showed a half-life at 25 μM of 0.00167 to 2.37 h. This compound yielded an IC50 in data set [3] of 10 to 20 µM.

As to `CCOc1cc(C(=O)O)ccc1N(Cc1cc(C2CC2)cc(C2CC2)c1)C(=O)CN(Cc1ccc(F)cc1C#N)S(=O)(=O)c1c(F)c(F)c(F)c(F)c1F` [Compound 1275, 4-(2-((N-(2-cyano-4-fluorobenzyl)-2,3,4,5,6-pentafluorophenyl)sulfonamido)-N-(3,5-dicyclopropylbenzyl)acetamido)-3-ethoxybenzoic acid], the figures for the 50% inhibitory concentration (IC50) in data set [1] and in data set [3] were 0.01 to 316 nM and 0.001 to 10 µM, respectively.

(Values after US20230159445A1, “STAT INHIBITORY COMPOUNDS AND COMPOSITIONS” (JANPIX LIMITED, priority 2020, published 2023).)
